From patent US9802939
Like-named read-outs stand apart in the source and are kept apart here.

Settings: 12-membered ring

Compound | ring closure, isolated yield (from COC(=O)Nc1ccc(-c2cn(COCC[Si](C)(C)C)c([C@H](CN(CCC(=O)O)C(=O)OC(C)(C)C)NC(=O)OCc3ccccc3)n2)c(N)c1, amide bond, BOP/DIEA, DCM/DMF, 0.93 mM, 25.0 °C) [%] | ring closure, isolated yield (from C=CCCOc1ccccc1-c1cn(COCC[Si](C)(C)C)c([C@H](CC=C)NC(=O)OC(C)(C)C)n1, rcm bond, Grubbs II (1 eq)/pTsOH, DCM, 1.02 mM, 40.0 °C) [%]
COC(=O)Nc1ccc2c(c1)NC(=O)CCN(C(=O)OC(C)(C)C)C[C@H](NC(=O)OCc1ccccc1)c1nc-2cn1COCC[Si](C)(C)C | 87 | –
CC(C)(C)OC(=O)N[C@H]1CC=CCCOc2ccccc2-c2cn(COCC[Si](C)(C)C)c1n2 | – | 20
